These results are taken from patent US4933330A, “Benzoic acid derivatives and use thereof” (priority 1987, dated 1990).

Series [1] is described as follows: In vivo absorption of 4-ASA (serum and urine) in healthy volunteers. Particulars: for Highest serum levels recalculated to treatment of the whole body, passive and active side: versus 4-ASA perorally in tuberculosis treatment.
A short description of series [2]: In vivo dermal absorption of 5-ASA (serum and urine) in healthy volunteers. Here is the method: Serum concentrations and the amount excreted in urine of 5-ASA and the 5-ASA metabolite: […] The study was performed as an open study, divided into the following parts: Part I: 2 volunteers, normal skin, single dose. Part IA: 1 volunteer, stripped skin and 1 volunteer, normal skin and occlusion, single dose. Part IB: 1 volunteer, stripped skin and occlusion, single dose. Part II: 6 volunteers, stripped skin day 1, and occlusion day 1 and day 8, multiple doses. Part I, IA and IB: 0.5 g 5% 5-ASA cream was applied to one forearm of the volunteer and blood samples were taken at intervals for 6 hours from both arms. 24 hour urine samples were collected. […] Blood and urine were collected as described above on day 1 and 8. […] Clinical chemistry tests showing the state of the patient (blood status, liver and kidney function, etc.) were performed before and after the study.

The test system of series [3] is psoriasis and contact dermatitis. Put plainly: Conclusion of clinical testing (psoriasis and contact dermatitis). In kind it is in vivo, patients. Particulars: active formulations. As to the method: 1. Patients with wide-spread psoriasis receiving systemic treatment with methotrexate, retinoids or topical treatment with dithranol or tar-preparations. An area of 5×5 cm^2 was used for treatment with compositions 1, 2 and 3 in an increasing concentration. A total of 5 patients were treated on in-patient basis, and the results were evaluated 2-3 times a week.
2. In 3 out of 5 other patients treated with 5-ASA cream under occulsion with a thin plastic film a dramatic effect was seen after 4-6 days.
3. 5% 5-ASA cream and placebo cream was compared in a randomized, double-blind, bilaterial trial with 5 psoriatic in-patients. Two contralateral psoriasis plaques of the same severity were treated for one week with the 5-ASA cream and placebo cream, respectively, with the concomitant use of an occulsive dressing.
4. 5% 4-ASA cream and placebo cream were compared in a randomized, double blind, bilateral trial with 10 psoriasis out-patients. […]
Ten patients with known nickel allergy and 15 patients with known allergy to other compounds were tested with 5% 5-ASA cream and placebo cream in a randomized, double blind, bilateral trial. […] The study areas were occluded with Finn chambers for 48 hours, and the patients' symptoms were recorded. After 72 hours, the patch test reactions were evaluated and the patients' symptoms recorded.

The next series relates to nickel allergy. Kind of series: Contact dermatitis/allergy test, patients with nickel allergy. The class given is in vivo. The settings on record: 5% 5-ASA cream vs placebo; after 72 hours. As to the method:
(§1) Ten patients with known nickel allergy and 15 patients with known allergy to other compounds were tested with 5% 5-ASA cream and placebo cream in a randomized, double blind, bilateral trial. The allergen was applied on two 1×1 cm^2 areas and the study creams were then applied on the left and right 2×2 cm^2 study areas, respectively. The study areas were occluded with Finn chambers for 48 hours, and the patients' symptoms were recorded. After 72 hours, the patch test reactions were evaluated and the patients' symptoms recorded.

The test system of series [4] is allergy to other compounds. Put plainly: Contact dermatitis/allergy test, patients with allergy to other compounds. The settings on record: 5% 5-ASA cream vs placebo. The class given is in vivo. Here is the method: as §1
A short description of series [5]: In vitro dermal absorption in Franz Diffusion cells. The settings on record: for Absorbed amounts, 5-ASA versus prodrug No. 350 / Detection of unchanged prodrug after penetration of the skin / Production of 5-ASA in free form after absorption: human skin in vitro. The class given is in vitro ADME, human. As to the method: Franz Diffusion cells (FDC) are systems for the measurements of percutaneous absorption by the finite dose technique. Human skin is mounted in specially constructed diffusion chambers (FDC), and the skin is batched from below by a reservoir solution. 3×10 μl solution (1 mg/ml) of the following compounds were applied to human skin in Franz diffusion cells (0.636 cm^2) and kept at 37° C. by thermostatic control: Compound 1=5-ASA […] Samples were taken from the reservoir at intervals for 76 hours and analyzed by HPLC for 5-ASA and the prodrugs themselves.

The subject of another series is rat. Particulars: intravenously; cited from earlier work.
A further series concerns psoriasis plaques. Put plainly: Randomized, bilateral trial of 5% 5-ASA cream vs placebo, 48 psoriasis patients. In kind it is in vivo. Here is the method:
Objective: To compare 5% 5-ASA cream with placebo cream in psoriasis patients.
5% 5-ASA cream and placebo cream were compared in a randomized, bilateral trial with 48 psoriasis patients (24 hospitalized and 24 out-patients). Two contralateral psoriasis plaques (5×5 cm^2 -10×10 cm^2) of the same severity were treated 3 times daily for two weeks (occulsion at night) with the 5-ASA and placebo creams, respectively.
Any reported adverse reactions were noted.
The differences between the "active side" (treated with 5-ASA) and the "placebo side" were statistically tested by a binomial distribution test.

For series [6] the following is noted: chronic inflammatory bowel disease; cited from earlier work.
Where [7] appears, read: human, serum, topical or ocular, 25 mg.
Where [8] appears, read: % of dose through the skin during 76 hours, 3×10 μl of 1 mg/ml, 37° C.
Where [9] appears, read: human, in vivo, topical or ocular.

For `CC(=O)Nc1ccc(C(=O)O)c(O)c1` [Ac-4-ASA, N-acetyl-4-aminosalicylic acid], the “Highest serum levels recalculated to treatment of the whole body, passive and active side” value in series [1] is listed as “within the values reported after use of 4-ASA perorally in tuberculosis treatment”. The Amount in urine result in [1] (versus peroral administration) is on record as “very small amounts in urine”.
As to `CC(=O)Nc1ccc(O)c(C(=O)O)c1` [Ac-5-ASA, 2-Hydroxy-5-acetamidobenzoic acid], the “Amount in urine versus peroral or rectal administration” value in [2] (human, in vivo) is on record as “much lower in percentages than after peroral or rectal administration”. In series [2] (human, in vivo), the “Maximum serum concentration recalculated to treatment of the whole body, active side” value is 2-3 times the values reported in studies with SASP. The “Maximum serum concentration recalculated to treatment of the whole body, passive side” value in series [2] (human, in vivo) is listed as “within the values reported in studies with salazosulphapyridine (SASP)”. In addition, the Recovery in urine result in series [2] (human, in vivo) is “Only Ac-5-ASA were recovered in urine”. The Median serum concentration in series [2] (human, in vivo, topical or ocular, 0.25 h) worked out at 13.5 ng/mL; in series [2] (human, in vivo, topical or ocular, 0.5 h), 7.0 ng/mL; in series [2] (human, in vivo, topical or ocular, 0.75 h), 10.3 ng/mL; in series [2] (human, in vivo, topical or ocular, 1.5 h), 14.6 ng/mL; in [2] (human, in vivo, topical or ocular, 3 h), 8.2 ng/mL.
Take `Nc1ccc(C(=O)O)c(O)c1` [Example 4-ASA, 4-aminosalicylic acid]: the “Efficacy vs placebo in comparative trials” value in series [3] is recorded as “more efficient than placebo”. Besides, in [1] (setting [7]), the concentration at 0.25 h was determined as 24 ng/mL, the concentration at 0.5 h was 43 ng/mL and the concentration at 1.5 h was 16 ng/mL. Moreover, the “Highest serum levels recalculated to treatment of the whole body, passive and active side” value in series [1] is “within the values reported after use of 4-ASA perorally in tuberculosis treatment”.
As to `Nc1ccc(O)c(C(=O)O)c1` [Example 5-ASA, 5-aminosalicylic acid, reference compound], the “Efficacy vs placebo in comparative trials” value in series [3] was “more efficient than placebo”. Also, in the series with nickel allergy, the “Patients showing no difference regarding pruritus” value is listed as “two”; the “Patients with preference to 5-ASA regarding pruritus” value is on record as “Seven out of 10”; the “Patients with preference to 5-ASA side, investigator's opinion and patch tests” value was 9 out of 10. Also, in [4], the “Preference of patients vs placebo” value is listed as “about twice as many patients preferred the 5-ASA treatment in comparison with placebo”. Further, the “% absorbed, compound measured: 5-ASA” value in series [5] (setting [8]) is recorded as 7.8-15.6%. The “Absorbed amounts, 5-ASA versus prodrug No. 350” value in series [5] is listed as “of the same size”. The “Absorption through normal skin” value in [2] (5% 5-ASA cream, normal skin) is recorded as “No absorption through normal skin was detected”. The “Absorption through occluded skin” value in series [2] (5% 5-ASA cream, occluded skin, late) is reported as “Small amounts”. Also, the “Absorption through both stripped and occluded skin” value in series [2] (5% 5-ASA cream, stripped and occluded skin) was “larger amounts”. For the same compound, in series [2] (5% 5-ASA cream, stripped skin, early), the “Absorption through stripped skin” value is “Small amounts”. Moreover, in series [2] (human, in vivo), the “Maximum serum concentration recalculated to treatment of the whole body, active side” value was 2-3 times the values reported in studies with SASP and the “Maximum serum concentration recalculated to treatment of the whole body, passive side” value is on record as “within the values reported in studies with salazosulphapyridine (SASP)”. In series [2] (setting [9]), this compound registered a concentration at 0.25 h of 19.4 ng/mL, a concentration at 0.5 h of 8.3 ng/mL, a concentration at 0.75 h of 7.3 ng/mL and a concentration at 1 h of 8.2 ng/mL. In series [2] (setting [9]), the concentration at 1.5 h stood at 7.1 ng/mL, the concentration at 2 h was 3.9 ng/mL, the concentration at 4 h was 17.2 ng/mL and the concentration at 6 h was found to be 22.9 ng/mL. For the same compound, the Nephrotoxic dose with rat was 300 to 900 mg/kg. In addition, in the series on psoriasis plaques, the “Effect compared to placebo (conclusion)” value is “A significant effect”.
For the compound `CCOC(=O)c1cc(N)ccc1O` [Prodrug No. 345, Ethyl 2-hydroxy-5-aminobenzoate], in series [5] (setting [8]), the “% absorbed, compound measured: 5-ASA” value is 18.2-24.0% and the “% absorbed, compound measured: prodrug itself” value is on record as 36.1-45.4%. Besides, the “Enhanced absorption, % of the dose” value in series [5] (as much as, 76 hours) is ≤ 70 % of the dose. Besides, in [5], the “Detection of unchanged prodrug after penetration of the skin” value was “detected unchanged after penetration of the skin” and the “Production of 5-ASA in free form after absorption” value was “could produce 5-ASA in free form after absorption through human skin in vitro”.
On to `CCOC(=O)c1cc(N)ccc1OC(C)=O` [Prodrug No. 350, Ethyl 2-acetoxy-5-aminobenzoate], for which, in [5] (setting [8]), the “% absorbed, compound measured: 5-ASA” value was 11.9-16.8%. In series [5], the “Absorbed amounts, 5-ASA versus prodrug No. 350” value is reported as “of the same size”; the “Detection of unchanged prodrug after penetration of the skin” value is given as “could not be detected unchanged”; the “Production of 5-ASA in free form after absorption” value is given as “could produce 5-ASA in free form after absorption through human skin in vitro”.
For `Nc1ccc(S(=O)(=O)Nc2ccccn2)cc1` [Sulphapyridine], the “Side effects after treatment with salazosulphapyridine” value in series [6] is given as “responsible for the side effects reported after treatment with salazosulphapyridine”.
